Like-named read-outs stand apart in the source and are kept apart here. Marks after values point to notes of the source that are not given here. Where a SMILES comes first, the peptide text is derived from it.
How the values were obtained:
[1] = Hyperlipidaemia induced by polyoxyethylene sorbitan monooleate (polysorbate-80) in rats, serum lipids; assay type: in vivo, Ratten; details: blood serum 24 h after polysorbate-80 300 mg/kg i.p.
Experimental: Die Versuche wurden an 51 Outbred-Ratten-Männchen der Linie Sprague-Dawley mit Körpergewicht von 220 - 240 g durchgeführt.
Die untersuchten Peptide wurden täglich in einer Tagesdosis von 20 und 200 µg/kg in den Magen im Laufe von 5 Tagen bis Hyperlipidämie-Ansatz verabreicht. Als Vergleichspräparat wurde ein Präparat gegen Hyperlipidämie aus der Gruppe von Fibric-Säure-Derivaten oder Fibraten - Bezafibrat (2-(b-parachlorobenzoyl-aminoethyl)phenoxy-2-methylpropinsäure) in der Dosis 50,0 mg/kg verwendet.
Die Hyperlipidämie wurde bei Ratten mittels intraperitonealer Einführung von Polyoxyethylen-sorbitan-monooleat (Polysorbat-80, Mischung von Polyäthylen-glykol-Esteren von Anhydrosorbit Monooleat) in einer Dosis von 300 mg/kg verabreicht. 24 Stunden später wurden die Ratten eingeschläfert. Danach wurden Triglyzeridspiegel, Gesamtcholesterin und Lipoproteid-Cholesterin mit hoher Dichte (HDL) im Blutserum der Tiere gemessen.
Infolge der Untersuchung der spezifischen pharmakologischen Aktivität wurde Folgendes festgestellt. Im Hintergrund der durch Polyoxyethylen-sorbitan-monooleat verursachten Hyperlipidämie üben Peptide eine hypolipidämische Wirkung aus. Das zeigt sich durch Senkung des Triglyzeridspiegels, des Gesamtcholesterinspiegels sowie durch Steigerung des HDL-Cholesterins im Blut (Tabelle 1) an. Tabelle 1

[2] = Alimentary atherogenic dyslipoproteinaemia (hypercholesterolaemic diet, 24 days) in rats, serum lipids; assay type: in vivo, Ratten; details: 100 µg/kg i.p. daily
Excerpt: Der Versuch wurde an 40 weißen Ratten-Männchen der Wistar-Linie mit einem Körpergewicht von 230 - 250 g durchgeführt. Die Tiere wurden in 4 Gruppen aufgeteilt. Gruppe 1: Referenzgruppe (Intakt), Gruppen 2 bis 4: Versuchsgruppen.
Die Versuchstiere wurden auf hypercholesterinämische (HCÄ) Diät gesetzt, um eine alimentäre atherogene Dyslipoproteinämie (DLP) zu modellieren. Die HCÄ- Diät umfasste mind. 7,5 % Cholesterin (CS), 45 % Fette und einen Überschuss an Vitamin D2 (500 000 IE). Gleichzeitig mit der Entwicklung von DLP erhielt die 3. Gruppe von Tieren Lys-Glu-Trp in einer Dosis von 100 µg/kg intraperitoneal täglich. Die 4. Gruppe von Tieren erhielt Lipanthyl 25 mg/kg intraperitoneal Lipanthyl 200M der Fa. Lab.Fournier S.A. (Frankreich) oder Fenofibrate, die zur Behandlung von Hyperlipoproteinämie verwendet werden, die sich mit keiner Diät mehr behandeln lässt. Der Versuch dauerte 24 Tage. […] Sie waren wohlgenährt und hatten glattes glänzendes Fell. Die Tiere aus der 2. Gruppe hatten zerzaustes Fell und zeigten Übererregbarkeit, was durch einen Überschuss an Vitamin D2 erklärt werden kann.
Nach dem Versuchsende wurde eine Dekapitation der Tiere vorgenommen. Danach wurden der Gesamt-Cholesterinspiegel (CS), Triglyzeridspiegel (TG), Cholesteringehalt der Lipoproteine hoher Dichte (CS HDL) im Blutserum der Tiere beurteilt und die Cholesterin-Konzentration der Lipoproteine niedriger Dichte (CS LDL) sowie der Cholesterin-HDL Quotient (LDL/HDL-Verhältnis) berechnet. Die genannten Kennziffern sind der Tabelle 2 zu entnehmen. Tabelle 2
Bei der Beurteilung wurden der Zustand und das Gewicht von Leber, Milz und Nebennieren berücksichtigt.

[3] = Alloxan diabetes in rats, blood glucose and response to insulin; assay type: in vivo, Ratten
Experimental: Bekanntlich ist Alloxan-Diabetes durch Schädigung der ß-Zellen von Pankreas gekennzeichnet und wird von ausgeprägter Hyperglykämie infolge eines Insulinmangels und einer Aktivierung von Glukoneogenese begleitet.
Der Versuch wurde an 18 weißen Outbred-Ratten-Männchen mit einem durchschnittlichen Körpergewicht von 349 ± 19 g durchgeführt. Nach der Ermittlung von Glukosekonzentration im Blut wurden alle Tiere in 2 Gruppen aufgeteilt. Danach erhielten alle Tiere einmalig intravenös je 1 ml Alloxanlösung ("Spofa") in einer Dosis von 35 mg/kg. 15 Tage danach wurde den Tieren aus der Referenzgruppe je 0,3 ml der 0,9 %igen NaCl-Lösung einmal täglich intraperitoneal verabreicht. Die Ratten aus der Hauptgruppe wurden mit Tripeptid Lys-Glu-Trp-NH2 in einer Dosis von 3 µg (in 0,3 ml der 0,9 %igen NaCl-Lösung) pro Ratte innerhalb von 11 Tagen behandelt. Eine separate Gruppe bestand aus 7 gesunden Ratten mit einem ähnlichen Körpergewicht.
Danach wurde allen Tieren Insulin (0,3 ME) intravenös verabreicht und die Glukosekonzentration im Blut gemessen.

[4] = assay type: in vivo; details: 500 µg oral twice daily for 30 days
Excerpt: Die Untersuchung bezog sich auf Patienten mit einer verifizierten Diagnose eines metabolischen Syndroms. Die Diagnose wurde bei Erfüllung folgender Kriterien gestellt: arterielle Hypertension, gestörte Glukosetoleranz, Fettsucht, Dyslipidämie. Es wurden insgesamt 85 Patienten mit metabolischem Syndrom (50 Frauen, 35 Männer) untersucht. Das durchschnittliche Alter betrug bei den Männern 54,6 ± 12 Jahre, bei den Frauen 55,6 ± 13,0 Jahre.
Kriterien für die Einbeziehung der Patienten in die Forschung: • 1. Alter: Älter als 45 Jahre für Männer und Frauen. • 2. Vorhandensein von klinischen Merkmalen eines metabolischen Syndroms. • 3. Vorhandensein von verifizierter Pathologie des Magen-Darm-Kanals (Verstopfungen, Reizdarmsyndrom, Cholezystitis, Pankreatitis, Fettleber). • 4. Zustimmung des Patienten.
Die Kriterien für den Ausschluss der Kranken aus der Untersuchung waren das Vorhandensein von familiärer Dyslipidämie, akuter Pathologie des Magen-Darm-Kanals, Merkmalen der Helmintheninvasion und onkologischer und systematischer Pathologie.
Die Kombination der angewandten pathogenetischen Therapie unter Einsatz solcher Mittel wie ACE-Hemmer, Ca2^+-Kanal-Blocker, harntreibende Mittel, β-Blocker und deren Dosierung wurde aufgrund klinischer Indikationen festgelegt. Bei der Untersuchung wurden auch die mit Nitropräparaten sowie mit Statinen behandelten Kranken ausgeschlossen. Alle Kranken wurden einer hypocholesterinämisierenden Diät unterzogen, die eine Einnahme von Kleie einschließt.
Tripeptid Lys-Glu-Trp-NH2 wurde 47 Patienten oral in einer Dosis von 500 µg pro Gabe zweimal täglich im Laufe von 30 Tagen verabreicht. Die Unterbrechung zwischen den Behandlungen betrug 2 Monate.
Die Kranken wurden im Laufe von 12 Monaten beobachtet. Die Untersuchung umfasste 3 Phasen: Ursprungsphase (zum Zeitpunkt der Diagnoseüberprüfung), 6 Monate und ein Jahr später.
Folgende Parameter wurden bei allen Kranken analysiert: Geschlecht, Alter zum Zeitpunkt der Untersuchung, Krankheitsdauer, Dauer der arteriellen Hypertension, Fettsucht, Dyslipidämie. Die Untersuchung der Kranken umfasste eine Einschätzung der Risikofaktoren, wie z. B. Vererbung, Fettsucht, Zuckerkrankheit, koronare Herzkrankheit. Dabei wurde eine Sozialanamnese, d. h. Besonderheiten des Lebensstils, Ernährungsgewohnheiten, analysiert. Es wurden auch anthropometrische Messungen durchgeführt: Wuchs, Körpergewicht, Body-Maß- Index. Alle Kranken wurden einer planmäßigen Laboruntersuchung unterzogen und zwar: klinische Blutanalyse und Untersuchung von biochemischen Blutkennwerten. Es wurden Hämoglobingehalt, Erythrozytenmenge, Leukozyten-gehalt, Lymphozytengehalt ermittelt. Unter den biochemischen Serumkennwerten wurden Gesamteiweißgehalt, Albumine, Triglyzeridspiegel, Cholesterinspiegel, LDL, HDL, LDL/HDL-Verhältnis ermittelt. Die durchgeführten Instrumentenunter-suchungen umfassten Zuckerbelastungstest, Abdomen-Sonographie, Stuhluntersuchungen, Schilddrüsenfunktionsprüfung (Hormonstatus).

[5] = 20 µg/kg daily into the stomach for 5 days
[6] = 200 µg/kg daily into the stomach for 5 days
[7] = 3 µg per rat i.p. for 11 days, 30 min after insulin 0,3 ME i.v.

## CC(C)(Oc1ccc(CCNC(=O)c2ccc(Cl)cc2)cc1)C(=O)O [Bezafibrat, 2-(b-parachlorobenzoyl-aminoethyl)phenoxy-2-methylpropinsäure]
[1]; 50,0 mg/kg (comparator)
  Gesamtcholesterin: 1,34±0,03 mMol/l
  HDL- Cholesterin: 0,98±0,05 mMol/l
  Triglyzeridspiegel: 0,55±0,06 mMol/l

## NCCCC[C@H](N)C(=O)N[C@@H](CCC(=O)O)C(=O)N[C@@H](Cc1c[nH]c2ccccc12)C(=O)O [Lys-Glu-Trp, L-Lysyl -L-Glutamyl-L-Tryptophan] (H-Lys-Glu-Trp-OH)
[1]; [5]
  HDL- Cholesterin: 0,97±0,04 mMol/l
  Triglyzeridspiegel: 0,58±0,05 mMol/l
[1]; [6]
  Gesamtcholesterin: 2,10±0,17 mMol/l
  HDL- Cholesterin: 0,60±0,02 mMol/l
  Triglyzeridspiegel: 0,67±0,05 mMol/l
[2]; HCÄ diet 24 days
  Wirkung auf das relative Gewicht von Leber, Milz und Nebennieren: keine ungünstige Wirkung
[2]; HCÄ diet 24 days, blood serum
  Triglyzeridspiegel: 0,96±0,16 mMol/l
[2]; during the 24-day experiment
  Aussehen der Tiere: normgerechtes Aussehen
[2]; calculated, HCÄ diet 24 days
  CS LDL: 0,71±0,24 mMol/l
  LDL/HDL-Verhältnis: 2,21±0,58* *
[2]; total cholesterol, HCÄ diet 24 days, blood serum
  CS: 1,70±0,27* * mMol/l

## NCCCC[C@H](N)C(=O)N[C@@H](CCC(=O)O)C(=O)N[C@@H](Cc1c[nH]c2ccccc12)C(N)=O [Lys-Glu-Trp-NH2] (H-Lys-Glu-Trp-NH2)
[3]; 3 µg per rat i.p. for 11 days
  Nebenwirkungen, Komplikationen, Arzneiabhängigkeit: keine Nebenwirkungen, Komplikationen und keine Arzneiabhängigkeit
[3]; 3 µg per rat i.p. for 11 days, starting 15 days after alloxan 35 mg/kg i.v., before insulin
  Glukosekonzentration im Blut (mg %) Ausgangsspiegel: 221,5±11,2 mg %
[3]; [7]
  Glukosekonzentration im Blut (mg %) 30 Minuten nach Insulineinführung: 123,6±8,3 mg %
  Senkung von Glukosespiegel im Vergleich zum Ausgangsspiegel (%): 44,2%
[3]; day 28 of the study, on average, 3 µg per rat i.p. for 11 days
  Senkung des Glukosespiegels im Blut: 34,8%
[3]; main group, 3 µg per rat i.p. for 11 days
  Letalität: Senkung der Letalität
[3]; versus alloxan diabetes + NaCl group
  Glukosespiegelsenkung nach der Insulineinführung gegenüber der Vergleichsgruppe: fast zweimal größere Glukosespiegelsenkung
[1]; [5]
  Gesamtcholesterin: 1,69±0,15 mMol/l
  HDL- Cholesterin: 1,05±0,02 mMol/l
  Triglyzeridspiegel: 0,76±0,14 mMol/l
[1]; [6]
  Gesamtcholesterin: 1,22±0,15 mMol/l
  HDL- Cholesterin: 1,09±0,02 mMol/l
  Triglyzeridspiegel: 0,88±0,12 mMol/l
[4]; 2 months between courses, 12 months observation, with basic therapy, Fig. 1
  Cholesterin-Konzentration: zur Cholesterin-Konzentrationssenkung beitrug
[4]; in complex therapy
  Konzentration der Lipoproteine mit hoher Dichte: Konzentrationssteigerung der Lipoproteine mit hoher Dichte
  drucksenkender Effekt: schnelleren und stabileren drucksenkenden Effekt
[4]; with basic therapy, Fig. 3
  LDL/HDL-Verhältnis: ausgeprägte Verminderung des LDL/HDL-Verhältnisses
[4]; 3rd examination after one year, Fig. 2
  Konzentration der Triglyzeride: maximale Konzentrationssenkung der Triglyzeride
